Laboratory results as given in the supplement of paper PMC10627819.

Experiments:
B. subtilis 168 [1] = test: fitness (endpoint OD595 vs no drug) (fraction); higher = more growth
Method in brief: (§1)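 With the first reading as background, OD595 was measured every 30 min for 14 h in 384-well plates kept at 37 °C and inoculated at OD595 0.01. TSB, LB Lennox or CY was the medium. Fitness is the optical density at the transition into stationary phase divided by the robust mean of no-drug control wells, with a cap of 1.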

S. pneumoniae D39V [2] = test: as above
Method in brief: as §1

B. subtilis 168 [3] = test: Bliss interaction score (quartile over a dose matrix) (fitness difference); higher = more antagonism (negative = synergy)
Method in brief: (§2)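 The Bliss score is observed minus expected fitness under the product model, reported as quartiles over technical, biological and donor/recipient replicates. Fitness is the OD595 at entry into stationary phase divided by the plate's robust no-drug mean and capped at 1. Single-drug fitness was inferred from combination data.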

S. aureus DSM 20231 = test: as above
Method in brief: as §2

S. aureus Newman = test: as above
Method in brief: as §2

S. pneumoniae D39V [4] = test: as above
Method in brief: as §2
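Wherever Bliss interaction score (quartile over a dose matrix) is given: first quartile when negative (synergy) and third quartile when positive (antagonism).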

CN(C)C(=O)C(CCN1CCC(O)(c2ccc(Cl)cc2)CC1)(c1ccccc1)c1ccccc1 [Loperamide] + CN(N=O)C(=O)N[C@@H](C=O)[C@@H](O)[C@H](O)[C@H](O)CO [Streptozotocin]
fitness, one replicate
Conditions	first compound 20 µg/mL	first compound 25 µg/mL	first compound 40 µg/mL	first compound 50 µg/mL	first compound 68.57 µg/mL	first compound 80 µg/mL	first compound 100 µg/mL
B. subtilis 168 [1], partner 0.15 µg/mL	–	0.843	–	0.0229	–	–	0.0221
B. subtilis 168 [1], partner 0.3 µg/mL	–	0.802	–	0.0269	–	–	0.0127
B. subtilis 168 [1], partner 0.6 µg/mL	–	0.821	–	0.025	–	–	0.02
S. pneumoniae D39V [2], partner 1.2 µg/mL	≥ 1	–	≥ 1	–	0.971	0.0146	–
S. pneumoniae D39V [2], partner 2.4 µg/mL	≥ 1	–	≥ 1	–	0.929	0.0167	–
S. pneumoniae D39V [2], partner 4.8 µg/mL	≥ 1	–	≥ 1	–	≥ 1	0	–

fitness, S. pneumoniae D39V [2]
Conditions	partner 1.2 µg/mL	partner 2.4 µg/mL	partner 4.8 µg/mL
first compound 17.14 µg/mL	0.962	0.943	0.974
first compound 34.28 µg/mL	0.956	0.982	0.978

Conditions	Bliss interaction score
B. subtilis 168 [3]	-0.0219
S. aureus DSM 20231	0.103
S. aureus Newman	0.0514
S. pneumoniae D39V [4]	0.0707

CN(C)C(=O)C(CCN1CCC(O)(c2ccc(Cl)cc2)CC1)(c1ccccc1)c1ccccc1 [Loperamide] + CN[C@@H]1[C@H](O)[C@H](NC)[C@H]2O[C@@]3(O)C(=O)C[C@@H](C)O[C@H]3O[C@@H]2[C@H]1O [Spectinomycin]
fitness
Conditions	partner 2 µg/mL	partner 4 µg/mL	partner 8 µg/mL	partner 16 µg/mL
B. subtilis 168 [1], first compound 25 µg/mL	0.812	0.78	0.566	–
S. pneumoniae D39V [2], first compound 17.14 µg/mL	–	0.983	0.974	0.93
S. pneumoniae D39V [2], first compound 34.28 µg/mL	–	0.994	0.909	0.929

fitness, S. pneumoniae D39V [2], one replicate
Conditions	first compound 20 µg/mL	first compound 40 µg/mL	first compound 68.57 µg/mL	first compound 80 µg/mL
partner 4 µg/mL	≥ 1	≥ 1	≥ 1	0.977
partner 8 µg/mL	≥ 1	≥ 1	≥ 1	0.966
partner 16 µg/mL	–	–	0.983	–

Conditions	Bliss interaction score
B. subtilis 168 [3]	0.354
S. aureus DSM 20231	0.104
S. aureus Newman	-0.103
S. pneumoniae D39V [4]	0.126

CN(C)C(=O)C(CCN1CCC(O)(c2ccc(Cl)cc2)CC1)(c1ccccc1)c1ccccc1 [Loperamide] + CN[C@@H]1[C@H](O[C@H]2[C@H](O[C@H]3[C@H](O)[C@@H](O)[C@H](N=C(N)N)[C@@H](O)[C@@H]3N=C(N)N)O[C@@H](C)[C@]2(O)C=O)O[C@@H](CO)[C@H](O)[C@H]1O [Streptomycin]
fitness
Conditions	partner 2 µg/mL	partner 4 µg/mL	partner 8 µg/mL
B. subtilis 168 [1], first compound 25 µg/mL	0.643	0.106	0.0172
B. subtilis 168 [1], first compound 50 µg/mL	0.0768	0.0399	0.019
B. subtilis 168 [1], first compound 100 µg/mL	0.0865	0.0369	0.0223
S. pneumoniae D39V [2], first compound 17.14 µg/mL	0.941	0.98	0.961
S. pneumoniae D39V [2], first compound 20 µg/mL	–	≥ 1	0.987
S. pneumoniae D39V [2], first compound 34.28 µg/mL	0.948	0.992	0.967
S. pneumoniae D39V [2], first compound 40 µg/mL	–	0.997	≥ 1

fitness, S. pneumoniae D39V [2], one replicate
Conditions	first compound 20 µg/mL	first compound 40 µg/mL	first compound 68.57 µg/mL	first compound 80 µg/mL
partner 2 µg/mL	≥ 1	≥ 1	0.871	0.86
partner 4 µg/mL	–	–	0.973	–
partner 8 µg/mL	–	–	0.966	–
partner 16 µg/mL	0.918	0.931	–	0.107

Conditions	Bliss interaction score
B. subtilis 168 [3]	-0.0818
S. aureus DSM 20231	-0.236
S. aureus Newman	0.0869
S. pneumoniae D39V [4]	0.125
